Experimental findings from patent US11761951B2, “Methods of selecting therapeutic molecules” (Bristol-Myers Squibb Company, priority 2015, dated 2023) are described below.

Data set [1] has as its system rat primary cortical neurons. The data set is described as follows: Primary cortical neuron spontaneous calcium oscillation (FLIPR, fluo-4 AM). The class given is cell-based. The note with it: primary neuronal spontaneous calcium oscillations. On the procedure:
(§1) To measure primary cortical neuron spontaneous calcium oscillation, rat primary cortical neurons were prepared from Sprague-Dawley rat embryos (E19). Cells were plated 25,000 cells/well onto 384 well poly-D-lysine coated FLIPR plates (Greiner Bio-One) in 25 μl/well Neurobasal media containing B27 supplement and 2 mM glutamine (day 1 in vitro, DIV1). Cells were grown for 11 days at 37° C. in 5% CO2 and fed with 25 μl of additional media on day 4 in vitro (“DIV04”) and day 8 in vitro (“DIV08”) for use on day 11 in vitro (“DIV11”). […] After 1 hr 20 μl of room temperature assay buffer was added and the cells were allowed to equilibrate to room temperature for 10 additional minutes and placed in the fluorescent imaging plate reader (FLIPR). Baseline signal (measurement of intracellular calcium) was read for 100 seconds (1 reading/second) before the addition of anti-sense oligomers. […] FLIPR signal was read for an additional 200 seconds (1 reading/second) after the addition of oligomer. A second 5 minute post addition plate read (300 one second points) on the FLIPR was conducted to allow for additional data capture. Raw data from the 5 minute read was exported and, using Excel, spike amplitude and frequency was calculated. Calculations were performed by measuring the average FLIPR signal over the 300 second read for control (non-treated) wells. […]

Another data set concerns AMPA receptor. The data set is described as follows: AMPA receptor mediated spontaneous calcium oscillations in primary neurons. The class given is cell-based, rat. The note with it: 25 μM oligomer; presence or absence of 1 mM MgCl2 representing 100% control. On the procedure:
as §1

In the next data set the test system is NMDA receptor. The data set is described as follows: NMDA receptor mediated spontaneous calcium oscillations in primary neurons. The class given is cell-based, rat. The note with it: 25 μM oligomer; presence or absence of 1 mM MgCl2 representing 100% control. On the procedure:
as §1

Data set [2] deals with central nervous system (CNS) network activity. The data set is described as follows: CNS network activity in vivo (data not shown).
The test system of data set [3] is spontaneous neuronal activity. Briefly: Electrophysiologic spontaneous neuronal activity in vitro (data not shown). The class given is cell-based.

“6-Cyano-7-nitroquinoxaline-2,3-dione [CNQX]”: the “reduction of calcium oscillations (total AMPA response in the assay)” value in data set [1] (CNQX 3 μM) was found to be 20%.
Turning to `[Cl-].[Cl-].[Mg+2]` [MgCl2], in data set [1] (1 mM MgCl2), the “reduction of calcium oscillations when NMDA receptor function was blocked” value is reported as “about 80%”.
As for “TGTgatgcaggaGTT (antisense TGTGATGCAGGAGTT; listed as DNA, chemistry not given here) [ASO-00007]”, in the data set on AMPA receptor, the “inhibition of AMPA receptor mediated calcium oscillations” value is “inhibited AMPA receptor”. The “inhibition of NMDA receptor mediated calcium oscillations” value with NMDA receptor is reported as “not NMDA receptor”. Also, the “impact on central nervous system (CNS) network activity in vivo” value in data set [2] is on record as “negatively impact”. The “impact on electrophysiologic spontaneous neuronal activity in vitro” value in data set [3] is “negatively impact”.
